“And” between values parts separate entries of the source, which are not always exact repeats. Equal entries are not always repeated.
Assay: PK of compound of Formula (Ia) after single subcutaneous dose of solution formulations in Wistar Han rats
Format: in vivo
Details: SC 50 mg/kg; for concentration at 1 h / concentration at 3 h / concentration at 8 h: male, Wistar Han, rat, plasma, sc
Experimental: Formulations containing the compound of Formula (Ia), or a pharmaceutically acceptable salt thereof, were prepared as solutions and optionally administered subcutaneously or intramuscularly to rats, rabbits, and/or dogs.
(§1) A solution of about 400 mg/mL of the compound of Formula (Ia) having 19.14 w/w % water, 40.66 w/w % PEG 300, 35.20 w/w % of a sodium salt of a compound of Formula (Ia), and 5.00% ethanol was prepared. The solution was administered subcutaneously to male Wistar Han rats at a dose level of about 50 mg/kg and dose volume of 0.125 mL/kg and the pharmacokinetic (PK) profile was determined.
as §1, with “500” for “400”, “16.64” for “19.14”, “35.36” for “40.66”, “43.00” for “35.20”, “0.1” for “0.125”
(§2) A solution of about 400 mg/mL of the compound of Formula (Ia) having 17.00 w/w % water, 36.40 w/w % PEG 300, 35.20 w/w % of a sodium salt of a compound of Formula (Ia), 5.00 w/w % ethanol, and 6.40 w/w % poloxamer 188 was prepared. The solution was administered subcutaneously to male beagle dogs at a dose level of about 12 mg/kg and male Wistar Han rats at a dose level of about 50 mg/kg. The pharmacokinetic profiles were determined, and the results for dogs are summarized in Table and Table, while the results for rats are summarized in Table and Table below.
as §2, with “500” for “400”, “14.06” for “17.00”, “30.12” for “36.40”
A solution of about 300 mg/mL of the compound of Formula (Ia) having 23.33 w/w % water, 48.99 w/w % PEG 300, 26.47 w/w % of a sodium salt of a compound of Formula (Ia), and 1.21 w/w % poloxamer 188 was prepared. The solution was administered subcutaneously to male beagle dogs at a dose level of about 6 mg/kg and male Wistar Han rats at a dose level of about 50 mg/kg. The pharmacokinetic profiles were determined, and the results for dogs are summarized in Table and Table, while the results for rats are summarized in Table and Table below.
as §2, with “18.80” for “17.00”, “40.25” for “36.40”, “34.38” for “35.20”, “1.57” for “6.40”
as §2, with “500” for “400”, “16.29” for “17.00”, “34.88” for “36.40”, “41.92” for “35.20”, “1.91” for “6.40”
A solution of about 400 mg/mL of the compound of Formula (Ia) having 20.90 w/w % water, 44.72 w/w % PEG 300, and 34.38 w/w % of a sodium salt of a compound of Formula (Ia) was prepared. […]

- Plasma concentration (0 h, individual rats, solution R, 400 mg/mL): BLQ
- Plasma concentration (0 h, individual rats, solution S, 500 mg/mL): BLQ
- Plasma concentration (0 h, individual rats, solution T, 400 mg/mL): BLQ
- Plasma concentration (0 h, individual rats, solution U, 500 mg/mL): BLQ
- Plasma concentration (0 h, individual rats, solution V, 300 mg/mL): BLQ
- Plasma concentration (1.00 h, individual rats, solution R, 400 mg/mL, 50 mg/kg): 59.3 nM and 42.4 nM
- Plasma concentration (3.00 h, individual rats, solution R, 400 mg/mL, 50 mg/kg): 164 nM and 104 nM
- Plasma concentration (3.00 h, individual rats, solution S, 500 mg/mL, 50 mg/kg): 72.7 nM and 118 nM
- Plasma concentration (8.00 h, individual rats, solution R, 400 mg/mL, 50 mg/kg): 131 nM and 84.1 nM
- Plasma concentration (8.00 h, individual rats, solution S, 500 mg/mL, 50 mg/kg): 82.0 nM and 127 nM
- Plasma concentration (24.0 h, individual rats, solution R, 400 mg/mL, 50 mg/kg): 194 nM and 125 nM
- Plasma concentration (24.0 h, individual rats, solution S, 500 mg/mL, 50 mg/kg): 138 nM and 133 nM
- Plasma concentration (48.0 h, individual rats, solution R, 400 mg/mL, 50 mg/kg): 162 nM and 107 nM
- Plasma concentration (48.0 h, individual rats, solution S, 500 mg/mL, 50 mg/kg): 158 nM and 119 nM
- Plasma concentration (72.0 h, individual rats, solution R, 400 mg/mL, 50 mg/kg): 154 nM and 123 nM
- Plasma concentration (72.0 h, individual rats, solution S, 500 mg/mL, 50 mg/kg): 166 nM and 120 nM
- Plasma concentration (96.0 h, individual rats, solution R, 400 mg/mL, 50 mg/kg): 162 nM and 112 nM
- Plasma concentration (96.0 h, individual rats, solution S, 500 mg/mL, 50 mg/kg): 149 nM and 107 nM
- Plasma concentration (168 h, individual rats, solution R, 400 mg/mL, 50 mg/kg): 166 nM and 124 nM
- Plasma concentration (168 h, individual rats, solution S, 500 mg/mL, 50 mg/kg): 121 nM and 82.3 nM
- Plasma concentration (336 h, individual rats, solution R, 400 mg/mL, 50 mg/kg): 275 nM and 256 nM
- Plasma concentration (336 h, individual rats, solution S, 500 mg/mL, 50 mg/kg): 277 nM and 140 nM and 131 nM
- Plasma concentration (504 h, individual rats, solution R, 400 mg/mL, 50 mg/kg): 319 nM and 393 nM
- Plasma concentration (504 h, individual rats, solution S, 500 mg/mL, 50 mg/kg): 211 nM and 235 nM
- Plasma concentration (672 h, individual rats, solution R, 400 mg/mL, 50 mg/kg): 286 nM and 442 nM
- Plasma concentration (672 h, individual rats, solution S, 500 mg/mL, 50 mg/kg): 254 nM and 227 nM
- Plasma concentration (840 h, individual rats, solution R, 400 mg/mL, 50 mg/kg): 313 nM and 443 nM
- Plasma concentration (840 h, individual rats, solution S, 500 mg/mL, 50 mg/kg): 221 nM and 250 nM
- Plasma concentration (1008 h, individual rats, solution R, 400 mg/mL, 50 mg/kg): 318 nM and 442 nM
- Plasma concentration (1008 h, individual rats, solution S, 500 mg/mL, 50 mg/kg): 479 nM and 207 nM and 215 nM
- Plasma concentration (1334 h, individual rats, solution R, 400 mg/mL, 50 mg/kg): 266 nM and 421 nM
- Plasma concentration (1334 h, individual rats, solution S, 500 mg/mL, 50 mg/kg): 254 nM and 248 nM
- Plasma concentration (1680 h, individual rats, solution R, 400 mg/mL, 50 mg/kg): 233 nM and 328 nM
- Plasma concentration (1680 h, individual rats, solution S, 500 mg/mL, 50 mg/kg): 216 nM and 189 nM
- Plasma concentration (2016 h, individual rats, solution R, 400 mg/mL, 50 mg/kg): 181 nM and 227 nM
- Plasma concentration (2016 h, individual rats, solution S, 500 mg/mL, 50 mg/kg): 158 nM and 133 nM
- Plasma concentration (2352 h, individual rats, solution R, 400 mg/mL, 50 mg/kg): 182 nM
- Plasma concentration (2352 h, individual rats, solution S, 500 mg/mL, 50 mg/kg): 170 nM and 119 nM
- Plasma concentration (2688 h, individual rats, solution R, 400 mg/mL, 50 mg/kg): 146 nM and 147 nM
- Plasma concentration (2688 h, individual rats, solution S, 500 mg/mL, 50 mg/kg): 148 nM and 126 nM
- Plasma concentration (3024 h, individual rats, solution R, 400 mg/mL, 50 mg/kg): 118 nM and 111 nM
- Plasma concentration (3360 h, individual rats, solution R, 400 mg/mL, 50 mg/kg): 116 nM and 84.7 nM
- Plasma concentration (3696 h, individual rats, solution R, 400 mg/mL, 50 mg/kg): 117 nM and 109 nM and 58.4 nM
- Plasma concentration (4032 h, individual rats, solution R, 400 mg/mL, 50 mg/kg): 109 nM and 136 nM and 59.5 nM
- Plasma concentration (4704 h, individual rats, solution R, 400 mg/mL, 50 mg/kg): 84.4 nM and 92.7 nM and 29.9 nM
- Plasma concentration (5376 h, individual rats, solution R, 400 mg/mL, 50 mg/kg): 62.6 nM and 90.4 nM and 20.9 nM
- Plasma concentration (6048 h, individual rats, solution R, 400 mg/mL, 50 mg/kg): 27.4 nM and 48.6 nM and 14.6 nM
- Plasma concentration (6720 h, individual rats, solution R, 400 mg/mL, 50 mg/kg): 22.7 nM and 45.8 nM and 10.4 nM
- Plasma concentration (7392 h, individual rats, solution R, 400 mg/mL, 50 mg/kg): 13.5 nM and 28.6 nM and 7.43 nM
- Plasma concentration (8064 h, individual rats, solution R, 400 mg/mL, 50 mg/kg): 8.39 nM and 24.1 nM and 4.52 nM
- concentration at 1 h (50 mg/kg, 1.00 h, individual rats, solution R, 400 mg/mL): 67.6 nM
- concentration at 1 h (50 mg/kg, 1.00 h, individual rats, solution U, 500 mg/mL): 42.6 nM
- concentration at 1 h (50 mg/kg, 1.00 h, individual rats, solution V, 300 mg/mL): 51.4 nM
- concentration at 1 h (50 mg/kg, 1.00 h, mean, n = 3 rats, solution R, 400 mg/mL): 56.4 nM
- concentration at 1 h (50 mg/kg, 1.00 h, mean, n = 3 rats, solution S, 500 mg/mL): 49.2 nM
- concentration at 1 h (50 mg/kg, 1.00 h, mean, n = 3 rats, solution V, 300 mg/mL): 51.4 nM
- concentration at 1 h (50 mg/kg, 1.00 h, mean, n = 5 rats, solution T, 400 mg/mL): 56.4 nM
- concentration at 1 h (50 mg/kg, 1.00 h, mean, n = 5 rats, solution U, 500 mg/mL): 50.5 nM
- concentration at 3 h (50 mg/kg, 3.00 h, individual rats, solution R, 400 mg/mL): 128 nM
- concentration at 3 h (50 mg/kg, 3.00 h, individual rats, solution S, 500 mg/mL): 87.6 nM
- concentration at 3 h (50 mg/kg, 3.00 h, individual rats, solution T, 400 mg/mL): 128 nM
- concentration at 3 h (50 mg/kg, 3.00 h, individual rats, solution V, 300 mg/mL): 141 nM
- concentration at 3 h (50 mg/kg, 3.00 h, mean, n = 3 rats, solution R, 400 mg/mL): 132 nM
- concentration at 3 h (50 mg/kg, 3.00 h, mean, n = 3 rats, solution S, 500 mg/mL): 92.8 nM
- concentration at 3 h (50 mg/kg, 3.00 h, mean, n = 3 rats, solution V, 300 mg/mL): 116 nM
- concentration at 3 h (50 mg/kg, 3.00 h, mean, n = 5 rats, solution T, 400 mg/mL): 135 nM
- concentration at 3 h (50 mg/kg, 3.00 h, mean, n = 5 rats, solution U, 500 mg/mL): 110 nM
- concentration at 8 h (50 mg/kg, 8.00 h, individual rats, solution R, 400 mg/mL): 120 nM
- concentration at 8 h (50 mg/kg, 8.00 h, individual rats, solution S, 500 mg/mL): 92 nM
SMILES: CC(C)(C#Cc1ccc(-c2ccc(Cl)c3c(NS(C)(=O)=O)nn(CC(F)(F)F)c23)c([C@H](Cc2cc(F)cc(F)c2)NC(=O)Cn2nc(C(F)(F)F)c3c2C(F)(F)[C@@H]2C[C@H]32)n1)S(C)(=O)=O [compound of Formula (Ia)]

— US11807625B2, “Capsid inhibitors for the prevention of HIV” (Gilead Sciences, Inc., priority 2019, dated 2023)
